Measurements: patent US7964341B2, “Human endogenous retrovirus K102 with foamy-virus-like properties and uses thereof” (priority 2005, dated 2011)

Tested on: HERV-K102 replication (cDNA production) in cultured cord blood cells
Experiment: Screening for agents able to modulate HERV-K102 replication (cDNA production) in cultured cord blood cells, real time PCR ddCt ratio
Assay type: cell-based, human
Conditions: for effect on HERV-K102 replication in cultured CB cells: approximately 10^-6 M or equivalent, harvested day 5
From the text: First we wished to show in normal lymphocytes that there are increased levels of HERV-K102 pol DNA over and above genomic when HERV-K102 associated particles are made. For this we extracted DNA and then performed the HERV-K102 ddCt ratio. Please see FIG. 15 for the sequences and location of the forward and reverse primers and the probe used for the real time PCR. […] We developed a ddCt ratio real time PCR method (relative quantitation) which takes the difference between HERV-K102 pol and 18 s RNA Ct's (delta Ct), and subtracts this from the same performed on commercial normal adult genomic DNA (male) (the delta delta Ct). Then we use the algorithm 2−(ddCt) to calculate the relative ratio of HERV-K102 to genomic DNA. This index when elevated above normal ratios (see Table 3 for these ratios) for fluids with contaminating cells (eg plasma and saliva) indicates an excess of non-genomic DNA templates and could be taken as a surrogate marker for putative particles in the sample. […] Since real time PCR is so sensitive, and we were only interested in the DNA copy number of HERV-K102 pol, we subsequently used the Qiagen DNA Mini kit for DNA extractions of plasma.
Commercially available master mix buffer can be purchased with or without Amperase-UNG a highly purified enzyme Uracil-N-Glycosylase, which when included in the buffer for the real time PCR will digest any DNA or cDNA templates containing uracil. […] Thus, if any isolated DNA becomes digested it must be non-genomic.
Finally we investigated certain natural products, drugs and peptide cytokines for their ability to regulate HERV-K replication such as measured in CB cells (Table 7). These agents were tested at approximately 10^−6 M or equivalent. We harvested the study on day 5. […] Tuftsin is naturally cleaved from the FC region of IgG and is considered an immunoenhancing substance and the 1/5000 concentration is usually employed to show its enhancing effects on the activation of monocytes.
Cord blood (CB) isolation. Under aseptic conditions, cord blood was collected into heparinized tubes and peripheral blood mononuclear cells (PBMC) were prepared as follows: the blood was centrifuged at 2700 rpm for 10 minutes, and the buffy coat placed in 5 mls of media (defined as IMDM plus 0.2% penicillin/gentamycin). The mixture was layered onto Ficoll-Paque (Pharmacia #17-0840-03) in a ratio of 1/3 Ficoll to blood suspension. The tubes were centrifuged 30 minutes at 1600 rpm.

[1] = cord blood Day 5, uracil-N-glycosylase in master mix, agents at approximately 10^-6 M or equivalent
[2] = cord blood harvested Day 5, agents at approximately 10^-6 M or equivalent, Day 5 control 2.19
[3] = cord blood harvested Day 5, agents at approximately 10^-6 M or equivalent, relative to Day 5 control ddCt ratio
[4] = Tuftsin 1/5000, cord blood Day 5

Row | Compound | effect on HERV-K102 replication in cultured CB cells | ddCt performed with UNG [1] | HERV-K102 ddCt Ratio [2] | Level of Control Activity (%) [3] | also measured
1 | CC/C(=C(\c1ccccc1)c1ccc(OCCN(C)C)cc1)c1ccccc1 [Tamoxifen, tamoxifen] | enhanced HERV-K102 replication | 2.64 (63%) | 3.43 | 157% | –
2 | Tuftsin | – | – | – | – | Level of Control Activity (%) (Tuftsin 1/500, cord blood Day 5): 65.7%; HERV-K102 ddCt Ratio (Tuftsin 1/500, cord blood Day 5, control 2.19): 1.44; Level of Control Activity (%) [4]: 189%; ddCt performed with UNG [4]: 2.10; HERV-K102 ddCt Ratio (Tuftsin 1/5000, cord blood Day 5, control 2.19): 4.14; effect on HERV-K102 replication (Tuftsin at high levels (1/500)): inhibited HERV-K102 replication; effect on HERV-K102 replication (Tuftsin at low levels (1/5000)): enhanced HERV-K102 replication; effect on HERV-BZU activation (depending on concentration, refers to Table 7): can enhance or inhibit HERV-BZU activation
3 | C[C@]12CC[C@H](O)CC1=CC[C@@H]1[C@@H]2CC[C@]2(C)C(=O)CC[C@@H]12 [DHEA, dihydroepiandrosterone] | enhanced HERV-K102 replication | – | 2.60 | 119% | –
4 | CC1=C(c2ccc(O)cc2)[C@H](c2ccc(OCCN3CCCCC3)cc2)Oc2cc(O)ccc21 [EM652] | enhanced HERV-K102 replication | 2.06 (100%) | 3.07 | 140% | –
5 | C[C@]12CC[C@@H]3c4ccc(O)cc4CC[C@H]3[C@@H]1CC[C@@H]2O [E2, estradiol] | – | – | – | 133% | –
